Data published in patent publication US20260250318A1, “COMPOSITIONS AND METHODS FOR CROSSING THE BLOOD BRAIN BARRIER” (VOYAGER THERAPEUTICS, INC., priority 2022, published 2026).

System: brains, heart, liver, muscle, and DRG of the NHPs
Assay: Maturation of TTM-001 and TTM-002 capsids, NGS enrichment in NHP tissues
Assay type: in vivo
Conditions: NGS, relative to AAV9 control; for Fold Enrichment relative to AAV9, Liver RNA (NHP): TTM-001 and TTM-002 matured AAV capsid variants
From the text: This Example describes maturation of the AAV9 capsid variants, TTM-001 (SEQ ID NO: 981 (amino acid) and 983 (DNA), comprising SEQ ID NO: 941 (encoded by SEQ ID NO: 942)) and TTM-002 (SEQ ID NO: 982 (amino acid) and 984 (DNA), comprising SEQ ID NO: […] (encoded by SEQ ID NO: 944)) in NHPs to further enhance their transduction and biodistribution in the central nervous system as well as other tissues, and evolve the AAV capsid variants to provide further cross-species compatibility. Two approaches were used to mature the TTM-001 and TTM-002 capsid sequences in order to randomize and mutate within and around the peptide insert comprised within loop IV of the capsid variant. […] In the first maturation approach, sets of three contiguous amino acids were randomized across the mutagenesis region in the TTM-001 and TTM-002 sequences, which spanned from position 450 to position 466, numbered according to SEQ ID NO: 981 and 982. In the second maturation approach, mutagenic primers were used to introduce point mutations at a low frequency, scattered across the mutagenesis region in the TTM-001 and TTM-002 sequences ranging from position 449 to position 466, numbered according to SEQ ID NO: 981 and 982. AAV capsid variants arising from each maturation approach for TTM-001 and TTM-002 were pooled together, for subsequent testing and characterization in NHPs.
The library of pooled matured AAV capsid variants generated using the first maturation approach and the second maturation approach for the TTM-001 and TTM-002 AAV capsid variants were injected into two NHPs. […] Following RNA recovery and RT-PCR amplification, a systematic NGS enrichment analysis was performed to calculate the fold enrichment ratio relative to an AAV9 control, and the peptides comprised within the variants were identified.
Following the RNA recovery and NGS analysis from the second maturation approach, approximately 680,000 capsid variants were identified. The 680,000 matured capsid variants were then filtered based on samples with a raw virus count greater than 10 and a coefficient of variance (CV) of less than 1, which was calculated for each peptide across the brain samples taken from the two NHPs. […] Using this filtering criteria, this led to approximately 64,000 matured capsid variants.

Sequence | Fold Enrichment relative to AAV9, DRG (NHP) | Fold Enrichment relative to AAV9, Brain (NHP) | Fold Enrichment relative to AAV9, Heart (NHP) | Fold Enrichment relative to AAV9, Liver DNA (NHP) | Fold Enrichment relative to AAV9, Liver RNA (NHP) | Fold Enrichment relative to AAV9, Muscle (NHP)
KTINGSGSPHSGKRNQQT | 0.000 fold | 0.000 fold | 0.000 fold | 5.396 fold | 35.120 fold | 0.000 fold
KTINGSGSPHSKARWQQT | 0.000 fold | 0.000 fold | 0.000 fold | 2.377 fold | 45.017 fold | 0.000 fold
KTINGSGSPHSKAQMQIT | 0.000 fold | 0.000 fold | 0.000 fold | 0.371 fold | 13.990 fold | 0.000 fold
KTINGSGSPHSKIRGQQT | 0.000 fold | 0.000 fold | 0.000 fold | 1.584 fold | 18.150 fold | 0.000 fold
KTINGSGSPHSKAFYIQT | 0.000 fold | 0.000 fold | 0.000 fold | 0.239 fold | 17.172 fold | 0.000 fold
KTINGSGSPHFYRQNQQT | 0.000 fold | 0.000 fold | 0.000 fold | 9.342 fold | 31.724 fold | 0.000 fold
KTINGSGSPHRWTQNQQT | 0.000 fold | 0.000 fold | 0.000 fold | 0.844 fold | 12.490 fold | 0.000 fold
KTINGSLSPHFWAQNQQT | 0.000 fold | 0.000 fold | 0.000 fold | 2.041 fold | 43.190 fold | 0.000 fold
KTINGRRSPHGKAQNQQT | 0.000 fold | 0.000 fold | 0.000 fold | 3.259 fold | 37.728 fold | 0.000 fold
KTINGSGSPHSKALRWQT | 0.000 fold | 0.000 fold | 0.000 fold | 5.252 fold | 14.118 fold | 0.000 fold
KTMQRSGSPHSKAQNQQT | 0.000 fold | 0.000 fold | 0.000 fold | 3.159 fold | 18.020 fold | 0.000 fold
KTINGSGSPHRCCQNQQT | 0.000 fold | 0.000 fold | 0.000 fold | 2.213 fold | 19.084 fold | 0.000 fold
KTINGSGSPHPRKQNQQT | 0.000 fold | 0.000 fold | 0.000 fold | 3.248 fold | 12.249 fold | 0.000 fold
KPRFGSGSPHSKAQNQQT | 0.000 fold | 0.000 fold | 0.000 fold | 0.657 fold | 27.203 fold | 0.000 fold
KTINGSGSPHYRYQNQQT | 0.000 fold | 0.000 fold | 0.000 fold | 1.027 fold | 14.107 fold | 0.000 fold
KRYNGSGSPHSKAQNQQT | 0.000 fold | 0.000 fold | 0.000 fold | 0.806 fold | 15.160 fold | 0.000 fold
KTKLCSGSPHSKAQNQQT | 0.000 fold | 0.000 fold | 0.000 fold | 2.139 fold | 12.570 fold | 0.000 fold
KTINGSGSPHSKWRLQQT | 0.000 fold | 0.000 fold | 0.000 fold | 2.037 fold | 68.083 fold | 0.000 fold
KTINGSGSPHSKMPCQQT | 0.000 fold | 0.000 fold | 0.000 fold | 1.063 fold | 15.343 fold | 0.000 fold
KTINGSGSPHSRMRNQQT | 0.000 fold | 0.000 fold | 0.000 fold | 2.816 fold | 48.902 fold | 0.000 fold
KTINGSGSPHSKLFWQQT | 0.000 fold | 0.000 fold | 0.000 fold | 4.178 fold | 37.022 fold | 0.000 fold
KTINGSGSPHSKNSRQQT | 0.000 fold | 0.000 fold | 0.000 fold | 1.093 fold | 11.280 fold | 0.000 fold
KTINGSGSPHSLPYNQQT | 0.000 fold | 0.000 fold | 0.000 fold | 2.048 fold | 14.792 fold | 0.000 fold
KTINGSGSPHSKRHRQQT | 0.000 fold | 0.000 fold | 0.000 fold | 4.648 fold | 73.225 fold | 0.000 fold
KTINGSGSPHSFRYNQQT | 0.000 fold | 0.000 fold | 0.000 fold | 4.148 fold | 21.097 fold | 0.000 fold
